Data reported in US20230150970A1, “AMINOPYRIMIDINE DERIVATIVES AND THEIR USE AS ARYL HYDROCARBON RECEPTOR MODULATORS” (DONG-A ST CO., LTD., priority 2020, published 2023).

Each compound was assayed against T1, AhR (Homo sapiens, UniProt P35869) (assay: In Vitro Assay 1: XRE-luciferase reporter assay, antagonism in human cell line (HepG2)). Conditions: Assay 1: AhR-Luc Human Antagonism (IC50, nM), unmarked values: kynurenine 200 μM, 6 hours.
T1 sequence (P35869 11-848): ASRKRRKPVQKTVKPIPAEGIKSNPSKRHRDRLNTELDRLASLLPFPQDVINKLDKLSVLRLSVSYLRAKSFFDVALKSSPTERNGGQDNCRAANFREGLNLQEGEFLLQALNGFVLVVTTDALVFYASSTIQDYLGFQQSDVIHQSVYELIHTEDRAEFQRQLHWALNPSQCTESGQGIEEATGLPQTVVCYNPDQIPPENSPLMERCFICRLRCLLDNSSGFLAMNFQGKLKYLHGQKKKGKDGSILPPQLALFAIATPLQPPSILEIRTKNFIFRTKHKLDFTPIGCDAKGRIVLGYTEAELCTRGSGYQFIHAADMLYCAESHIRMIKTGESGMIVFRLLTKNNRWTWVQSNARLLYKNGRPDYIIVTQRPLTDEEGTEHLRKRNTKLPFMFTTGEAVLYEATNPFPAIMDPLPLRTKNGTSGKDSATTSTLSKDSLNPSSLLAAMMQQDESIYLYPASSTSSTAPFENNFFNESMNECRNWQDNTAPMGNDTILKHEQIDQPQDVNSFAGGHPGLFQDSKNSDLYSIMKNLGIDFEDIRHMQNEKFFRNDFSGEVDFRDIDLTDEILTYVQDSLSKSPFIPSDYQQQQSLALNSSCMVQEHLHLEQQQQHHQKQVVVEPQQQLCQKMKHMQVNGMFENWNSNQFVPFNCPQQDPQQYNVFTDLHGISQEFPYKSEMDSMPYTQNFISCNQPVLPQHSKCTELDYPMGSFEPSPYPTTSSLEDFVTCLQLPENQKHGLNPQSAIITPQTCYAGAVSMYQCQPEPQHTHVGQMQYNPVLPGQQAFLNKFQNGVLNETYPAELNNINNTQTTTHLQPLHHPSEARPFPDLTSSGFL
`Oc1cc(Cl)ccc1-c1cc(N2CC[C@H](O)C2)nc(-c2cccnc2O)n1` [Example 304, (S)-3-(4-(4-chloro-2-hydroxyphenyl)-6-(3-hydroxypyrrolidin-1-yl)pyrimidin-2-yl)pyridin-2-ol] gave an IC50 of less than 10 nM. `CC(=O)N[C@@H]1CN(c2cc(-c3ccc(Cl)cc3)nc(-c3cccnc3)n2)C[C@H]1OC(C)=O` [Example 242, (3R,4R)-4-acetamido-1-(6-(4-chlorophenyl)-2-(pyridin-3-yl)pyrimidin-4-yl)pyrrolidin-3-yl acetate] was tested, and the IC50 was 10 to 100 nM. `O=S(=O)(CCF)N1CCN(c2cc(-c3ccc(Cl)cc3)nc(-c3cccnc3)n2)CC1` [Example 335, 4-(4-chlorophenyl)-6-(4-((2-fluoroethyl)sulfonyl)piperazin-1-yl)-2-(pyridin-3-yl)pyrimidine] showed an IC50 of less than 10 nM. In the case of `OC[C@@H]1CN(c2cc(-c3ccc(Cl)cc3)nc(-c3cccnc3)n2)C[C@H]1O` [Example 266, (3S,4S)-1-(6-(4-chlorophenyl)-2-(pyridin-3-yl)pyrimidin-4-yl)-4-(hydroxymethyl)pyrrolidin-3-ol], the IC50 is reported as less than 10 nM. With `O[C@H]1CCN(c2cc(-c3ccc(N4CCOCC4)nc3)nc(-c3cccnc3)n2)C1` [Example 315, (S)-1-(6-(6-morpholinopyridin-3-yl)-2-(pyridin-3-yl)pyrimidin-4-yl)pyrrolidin-3-ol] the IC50 was less than 10 nM. In the case of `O=C(O)[C@@H]1CCN(c2cc(-c3ccc(C(F)(F)F)cc3)nc(-c3cccnc3)n2)C1` [Example 310, (R)-1-(2-(pyridin-3-yl)-6-(4-(trifluoromethyl)phenyl)pyrimidin-4-yl)pyrrolidine-3-carboxylic acid], the IC50 is reported as 100 to 1000 nM. Compound `OC[C@H]1CCN(c2cc(-c3ccc(C(F)(F)F)cc3)nc(-c3cccnc3)n2)C[C@H]1F` [Example 250, ((3S,4R)-3-fluoro-1-(2-(pyridin-3-yl)-6-(4-(trifluoromethyl)phenyl)pyrimidin-4-yl)piperidin-4-yl)methanol] has an IC50 of less than 10 nM. `Oc1cc(Cl)ccc1-c1cc(N2CC[C@H](O)C2)nc(-c2cccnc2)n1` [Example 316, (S)-1-(6-(4-chloro-2-hydroxyphenyl)-2-(pyridin-3-yl)pyrimidin-4-yl)pyrrolidin-3-ol] showed an IC50 of less than 10 nM. With `O=[N+]([O-])c1cc(-c2cc(N3CC[C@H](O)C3)nc(-c3cccnc3)n2)ccc1F` [Example 296, (S)-1-(6-(4-fluoro-3-nitrophenyl)-2-(pyridin-3-yl)pyrimidin-4-yl)pyrrolidin-3-ol] the IC50 was greater than 1000 nM. `OC[C@H]1CCN(c2cc(-c3ccc(Cl)cc3)nc(-c3cccnc3)n2)C[C@@H]1F` [Example 253, ((3R,4R)-1-(6-(4-chlorophenyl)-2-(pyridin-3-yl)pyrimidin-4-yl)-3-fluoropiperidin-4-yl)methanol] showed an IC50 of less than 10 nM. In the case of `Cn1nnc(-c2nc(-c3ccc(Cl)cc3)cc(N3CCN(S(C)(=O)=O)CC3)n2)n1` [Example 334, 4-(4-chlorophenyl)-2-(2-methyl-2H-tetrazol-5-yl)-6-(4-(methylsulfonyl)piperazin-1-yl)pyrimidine], the IC50 is reported as greater than 1000 nM.

Same assay, conditions: Assay 1: AhR-Luc Human Antagonism (IC50, nM), values marked *: kynurenine 50 μM, 6 hours
`O[C@H](CNc1cc(-c2ccc(Cl)cc2)nc(-c2cccnc2)n1)c1ccccc1` [Example 18, (S)-2-((6-(4-chlorophenyl)-2-(pyridin-3-yl)pyrimidin-4-yl)amino)-1-phenylethan-1-ol] was tested, and the IC50 was greater than 1000 nM. Work on `CC(C)C(CO)Nc1cc(-c2ccc(Cl)cc2)nc(-c2cccnc2)n1` (centres unmarked) [Example 12, 2-((6-(4-chlorophenyl)-2-(pyridin-3-yl)pyrimidin-4-yl)amino)-3-methylbutan-1-ol] yielded an IC50 of 100 to 1000 nM. With `Clc1ccc(-c2cc(N3CCN(C(c4ccccc4)c4ccc(Cl)cc4)CC3)nc(-c3cccnc3)n2)cc1` (centres unmarked) [Example 124, 4-(4-chlorophenyl)-6-(4-((4-chlorophenyl)(phenyl)methyl)piperazin-1-yl)-2-(pyridin-3-yl)pyrimidine] the IC50 was greater than 1000 nM. `Cn1cc(-c2nc(N[C@@H]3CCC[C@@H]3O)cc(-c3ccc(Cl)cc3)n2)cn1` [Example 174, (1S,2R)-2-((6-(4-chlorophenyl)-2-(1-methyl-1H-pyrazol-4-yl)pyrimidin-4-yl)amino)cyclopentan-1-ol] showed an IC50 of 100 to 1000 nM. With `Cc1ccc(N2CCN(c3cc(-c4ccc(Cl)cc4)nc(-c4cccnc4)n3)CC2)cc1` [Example 115, 4-(4-chlorophenyl)-2-(pyridin-3-yl)-6-(4-(p-tolyl)piperazin-1-yl)pyrimidine] the IC50 was greater than 1000 nM. `Cn1cc(-c2nc(-c3ccc(Cl)cc3)cc(N3CCC(O)CC3)n2)cn1` [Example 176, 1-(6-(4-chlorophenyl)-2-(1-methyl-1H-pyrazol-4-yl)pyrimidin-4-yl)piperidin-4-ol] was tested, and the IC50 was greater than 1000 nM. With `O[C@@H]1CCCC[C@H]1Nc1cc(-c2ccc(Cl)cc2)nc(-c2cccnc2)n1` (relative stereo) [Example 35, trans-2-((6-(4-chlorophenyl)-2-(pyridin-3-yl)pyrimidin-4-yl)amino)cyclohexan-1-ol] the IC50 was greater than 1000 nM. For `C[C@H](O)CNc1cc(-c2ccc(Cl)cc2)nc(-c2cccnc2)n1` [Example 8, (S)-1-((6-(4-chlorophenyl)-2-(pyridin-3-yl)pyrimidin-4-yl)amino)propan-2-ol], the IC50 was 100 to 1000 nM. In the case of `OCC1CCN(c2cc(-c3ccc(Cl)cc3)nc(-c3cccnc3)n2)C1` (centres unmarked) [Example 138, (1-(6-(4-chlorophenyl)-2-(pyridin-3-yl)pyrimidin-4-yl)pyrrolidin-3-yl)methanol], the IC50 is reported as less than 10 nM. Work on `CCCNc1cc(-c2ccc(Cl)cc2)nc(-c2cccnc2)n1` [Example 22, 6-(4-chlorophenyl)-N-propyl-2-(pyridin-3-yl)pyrimidin-4-amine] yielded an IC50 of 100 to 1000 nM. Work on `Cn1cc(-c2nc(-c3ccc(Cl)cc3)cc(N3CCN(CCO)CC3)n2)cn1` [Example 182, 2-(4-(6-(4-chlorophenyl)-2-(1-methyl-1H-pyrazol-4-yl)pyrimidin-4-yl)piperazin-1-yl)ethan-1-ol] yielded an IC50 of 100 to 1000 nM. Compound `OC1(c2ccc(Cl)cc2)CCN(c2cc(-c3ccc(Cl)cc3)nc(-c3cccnc3)n2)CC1` [Example 153, 4-(4-chlorophenyl)-1-(6-(4-chlorophenyl)-2-(pyridin-3-yl)pyrimidin-4-yl)piperidin-4-ol] has an IC50 greater than 1000 nM. `CN(c1cc(-c2ccc(Cl)cc2)nc(-c2cccnc2)n1)C1CCNCC1` [Example 167, 6-(4-chlorophenyl)-N-methyl-N-(piperidin-4-yl)-2-(pyridin-3-yl)pyrimidin-4-amine] was tested, and the IC50 was greater than 1000 nM. `F[C@H]1CCN(c2cc(-c3ccc(Cl)cc3)nc(-c3cccnc3)n2)C1` [Example 196, (S)-4-(4-chlorophenyl)-6-(3-fluoropyrrolidin-1-yl)-2-(pyridin-3-yl)pyrimidine] was tested, and the IC50 was 10 to 100 nM. `OCC(CO)Nc1cc(-c2ccc(Cl)cc2)nc(-c2cccnc2)n1` [Example 16, 2-((6-(4-chlorophenyl)-2-(pyridin-3-yl)pyrimidin-4-yl)amino)propane-1,3-diol] showed an IC50 greater than 1000 nM. `COC1CCN(c2cc(-c3ccc(Cl)cc3)nc(-c3cccnc3)n2)CC1` [Example 45, 4-(4-chlorophenyl)-6-(4-methoxypiperidin-1-yl)-2-(pyridin-3-yl)pyrimidine] gave an IC50 of 10 to 100 nM. With `Clc1ccc(-c2cc(N3CCNCC3)nc(-c3cccnc3)n2)cc1` [Example 102, 4-(4-chlorophenyl)-6-(piperazin-1-yl)-2-(pyridin-3-yl)pyrimidine] the IC50 was 100 to 1000 nM. With `FC(F)(F)C1CCCN1c1cc(-c2ccc(Cl)cc2)nc(-c2cccnc2)n1` (centres unmarked) [Example 197, 4-(4-chlorophenyl)-2-(pyridin-3-yl)-6-(2-(trifluoromethyl)pyrrolidin-1-yl)pyrimidine] the IC50 was greater than 1000 nM. `Clc1ccc(-c2cc(NCC3CCCN(C4CCCCC4)C3)nc(-c3cccnc3)n2)cc1` (centres unmarked) [Example 158, 6-(4-chlorophenyl)-N-((1-cyclohexylpiperidin-3-yl)methyl)-2-(pyridin-3-yl)pyrimidin-4-amine] gave an IC50 of 100 to 1000 nM. `CC(C)(C)Nc1cc(-c2ccc(Cl)cc2)nc(-c2cccnc2)n1` [Example 28, N-(tert-butyl)-6-(4-chlorophenyl)-2-(pyridin-3-yl)pyrimidin-4-amine] gave an IC50 greater than 1000 nM. `Clc1ccc(-c2cc(N3CCOCC3)nc(-c3cccnc3)n2)cc1` [Example 71, 4-(6-(4-chlorophenyl)-2-(pyridin-3-yl)pyrimidin-4-yl)morpholine] gave an IC50 of 10 to 100 nM. `Clc1ccc(-c2cc(NC3CCCNC3)nc(-c3cccnc3)n2)cc1` (centres unmarked) [Example 101, 6-(4-chlorophenyl)-N-(piperidin-3-yl)-2-(pyridin-3-yl)pyrimidin-4-amine] showed an IC50 of 100 to 1000 nM. For `O[C@@H]1CNC[C@@H]1Nc1cc(-c2ccc(Cl)cc2)nc(-c2cccnc2)n1` [Example 133, (3R,4S)-4-((6-(4-chlorophenyl)-2-(pyridin-3-yl)pyrimidin-4-yl)amino)pyrrolidin-3-ol], the IC50 was greater than 1000 nM. `O=C1CCN(c2cc(-c3ccc(Cl)cc3)nc(-c3cccnc3)n2)CC1` [Example 166, 1-(6-(4-chlorophenyl)-2-(pyridin-3-yl)pyrimidin-4-yl)piperidin-4-one] showed an IC50 of 10 to 100 nM.
